Values quoted from earlier work as cited in patent US7232435B2, “Delivery of a sympatholytic cardiovascular agent to the central nervous system to counter heart failure and pathologies associated with heart failure” (Medtronic, Inc., priority 2004, dated 2007).
Structures can show the parent of a compound that is named as a salt.

Assays:
[1] = bolus intravenous injection
[2] = intrathecal delivery
[3] = oral or transdermal

SMILES | autonomic effects (sympathetic outflow, vagal tone, baroreceptor reflex sensitivity) [1] | hemodynamic effects (heart rate, preload, afterload, pulmonary artery and right atrial pressure) [1] | time of peak effects [1] [min] | undesirable side effects [2] | major side effects [3]
Clc1cccc(Cl)c1N=C1NCCN1 [clonidine HCl] | decreased sympathetic outflow, increased vagal tone and sensitivity of the baroreceptor reflex | Reductions were observed in heart rate, left ventricular filling pressure (preload), mean systemic arterial pressure (afterload), mean pulmonary artery pressure and right atrial pressure | 5 to 20 |  | 
Clc1cccc(Cl)c1N=C1NCCN1 [clonidine, 2-[(2,6-dichlorophenyl)amino]-2-imidazoline] |  |  |  | Abnormally low blood pressure (hypotension) and bradycardia | sedation and dry mouth
